In patent US20230085307A1, “PYRIDAZINONE COMPOUND AND HERBICIDE” (NISSAN CHEMICAL CORPORATION, priority 2019, published 2023):

Key:
Italian ryegrass [1] = assay: Test Example 4: herbicidal effect by soil treatment (Table 19, symbol K); format: in vivo, Italian ryegrass (Lolium multiflorum); conditions: amount of applied herbicide 320 g/ha
How it was run: (§1)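 Seeds were sown in sterilized diluvial soil and covered with about 1.5 cm of soil. An emulsion formulation diluted with water to a predetermined herbicide amount was sprayed evenly onto the soil surface. Plants grew in a greenhouse at 25° C. to 30° C., and the effect was scored three weeks after application using criteria from an earlier test.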

green foxtail [2] = assay: Test Example 5: herbicidal effect by foliage application, plastic box (Table 20, symbol G); format: in vivo, green foxtail (Setaria viridis); conditions: foliage application, 320 g/ha, evaluated three weeks after application
How it was run: (§2)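 Plants sown in sterilized diluvial soil and grown 14 days in a greenhouse at 25° C to 30° C, then sprayed on the foliage with the compound's emulsion diluted in water to a predetermined herbicide amount. Injury to weeds and crops scored three weeks after application on a visual rating scale.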

Italian ryegrass [3] = assay: Test Example 5: herbicidal effect by foliage application, plastic box (Table 20, symbol K); format: in vivo, Italian ryegrass (Lolium multiflorum); conditions: foliage application, 320 g/ha, evaluated three weeks after application
How it was run: as §2

velvetleaf [4] = assay: Test Example 4: herbicidal effect by soil treatment (Table 19, symbol M); format: in vivo, velvetleaf (Abutilon theophrasti); conditions: amount of applied herbicide 320 g/ha
How it was run: as §1

barnyard grass [5] = assay: Test Example 3: herbicidal effect by foliage application, Wagner pot (Table 18, symbol H); format: in vivo, barnyard grass (Echinochloa crus-galli); conditions: amount of applied herbicide 320 g/ha
How it was run: (§3)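 Plants were sown in alluvial soil held under 0.1–0.5 cm standing water and grown 14 days in a greenhouse at 25–30 °C. An emulsifiable formulation, water-diluted to the set dose, was then sprayed onto the foliage, and effects were scored three weeks later using previously defined criteria.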

green foxtail [6] = assay: Test Example 4: herbicidal effect by soil treatment (Table 19, symbol G); format: in vivo, green foxtail (Setaria viridis); conditions: amount of applied herbicide 320 g/ha
How it was run: as §1

Chinese sprangletop = assay: Test Example 3: herbicidal effect by foliage application, Wagner pot (Table 18, symbol D); format: in vivo, chinese sprangletop (Leptochloa chinensis); conditions: amount of applied herbicide 320 g/ha
How it was run: as §3

wild oat [7] = assay: Test Example 4: herbicidal effect by soil treatment (Table 19, symbol I); format: in vivo, wild oat (Avena fatua); conditions: amount of applied herbicide 320 g/ha
How it was run: as §1

southern crabgrass [8] = assay: Test Example 4: herbicidal effect by soil treatment (Table 19, symbol F); format: in vivo, southern crabgrass (Digitaria ciliaris); conditions: amount of applied herbicide 320 g/ha
How it was run: as §1

chickweed [9] = assay: Test Example 5: herbicidal effect by foliage application, plastic box (Table 20, symbol P); format: in vivo, common chickweed (Stellaria media); conditions: foliage application, 320 g/ha, evaluated three weeks after application
How it was run: as §2

redroot pigweed [10] = assay: Test Example 4: herbicidal effect by soil treatment (Table 19, symbol N); format: in vivo, redroot pigweed (Amaranthus retroflexus); conditions: amount of applied herbicide 320 g/ha
How it was run: as §1

velvetleaf [11] = assay: Test Example 5: herbicidal effect by foliage application, plastic box (Table 20, symbol M); format: in vivo, velvetleaf (Abutilon theophrasti); conditions: foliage application, 320 g/ha, evaluated three weeks after application
How it was run: as §2

barnyard grass [12] = assay: Test Example 5: herbicidal effect by foliage application, plastic box (Table 20, symbol H); format: in vivo, barnyard grass (Echinochloa crus-galli); conditions: foliage application, 320 g/ha, evaluated three weeks after application
How it was run: as §2

redroot pigweed [13] = assay: Test Example 5: herbicidal effect by foliage application, plastic box (Table 20, symbol N); format: in vivo, redroot pigweed (Amaranthus retroflexus); conditions: foliage application, 320 g/ha, evaluated three weeks after application
How it was run: as §2

blackgrass [14] = assay: Test Example 5: herbicidal effect by foliage application, plastic box (Table 20, symbol J); format: in vivo, blackgrass (Alopecurus myosuroides); conditions: foliage application, 320 g/ha, evaluated three weeks after application
How it was run: as §2

lambsquarters [15] = assay: Test Example 5: herbicidal effect by foliage application, plastic box (Table 20, symbol O); format: in vivo, lambsquarters (Chenopodium album); conditions: foliage application, 320 g/ha, evaluated three weeks after application
How it was run: as §2

blackgrass [16] = assay: Test Example 4: herbicidal effect by soil treatment (Table 19, symbol J); format: in vivo, blackgrass (Alopecurus myosuroides); conditions: amount of applied herbicide 320 g/ha
How it was run: as §1

southern crabgrass [17] = assay: Test Example 5: herbicidal effect by foliage application, plastic box (Table 20, symbol F); format: in vivo, southern crabgrass (Digitaria ciliaris); conditions: foliage application, 320 g/ha, evaluated three weeks after application
How it was run: as §2

persian speedwell [18] = assay: Test Example 5: herbicidal effect by foliage application, plastic box (Table 20, symbol R); format: in vivo, Persian speedwell (Veronica persica); conditions: foliage application, 320 g/ha, evaluated three weeks after application
How it was run: as §2

barnyard grass [19] = assay: Test Example 4: herbicidal effect by soil treatment (Table 19, symbol H); format: in vivo, barnyard grass (Echinochloa crus-galli); conditions: amount of applied herbicide 320 g/ha
How it was run: as §1

windgrass [20] = assay: Test Example 5: herbicidal effect by foliage application, plastic box (Table 20, symbol L); format: in vivo, windgrass (Apera spica-venti); conditions: foliage application, 320 g/ha, evaluated three weeks after application
How it was run: as §2

lambsquarters [21] = assay: Test Example 4: herbicidal effect by soil treatment (Table 19, symbol O); format: in vivo, lambsquarters (Chenopodium album); conditions: amount of applied herbicide 320 g/ha
How it was run: as §1

persian speedwell [22] = assay: Test Example 4: herbicidal effect by soil treatment (Table 19, symbol R); format: in vivo, Persian speedwell (Veronica persica); conditions: amount of applied herbicide 320 g/ha
How it was run: as §1

wild oat [23] = assay: Test Example 5: herbicidal effect by foliage application, plastic box (Table 20, symbol I); format: in vivo, wild oat (Avena fatua); conditions: foliage application, 320 g/ha, evaluated three weeks after application
How it was run: as §2

rice flat sedge = assay: Test Example 3: herbicidal effect by foliage application, Wagner pot (Table 18, symbol E); format: in vivo, rice flat sedge (Cyperus iria); conditions: amount of applied herbicide 320 g/ha
How it was run: as §3

chickweed [24] = assay: Test Example 4: herbicidal effect by soil treatment (Table 19, symbol P); format: in vivo, common chickweed (Stellaria media); conditions: amount of applied herbicide 320 g/ha
How it was run: as §1

windgrass [25] = assay: Test Example 4: herbicidal effect by soil treatment (Table 19, symbol L); format: in vivo, windgrass (Apera spica-venti); conditions: amount of applied herbicide 320 g/ha
How it was run: as §1

## COc1ccccc1-c1sc2ccc(NC(=O)OC(C)(C)C)cc2c1-c1c(O)c(C)nn(C)c1=O [2-181]
Italian ryegrass [1]
  K: Italian ryegrass, herbicidal effect rating: 0 (Herbicidal rate of 5% or less (almost no effect))
Green foxtail [2]
  herbicidal effect on G: green foxtail (criteria 0-5): 1 (Herbicidal rate of 5% or more and less than 20%)
Italian ryegrass [3]
  herbicidal effect on K: Italian ryegrass (criteria 0-5): 0 (Herbicidal rate of 5% or less (almost no effect))
Velvetleaf [4]
  M: velvetleaf, herbicidal effect rating: 0 (Herbicidal rate of 5% or less (almost no effect))
Barnyard grass [5]
  herbicidal effect on H: barnyard grass: 2 (Herbicidal rate of 20% or more and less than 40%)
Green foxtail [6]
  G: green foxtail, herbicidal effect rating: 0 (Herbicidal rate of 5% or less (almost no effect))
Chinese sprangletop
  herbicidal effect on D: Chinese sprangletop: 3 (Herbicidal rate of 40% or more and less than 70%)
Wild oat [7]
  I: wild oat, herbicidal effect rating: 0 (Herbicidal rate of 5% or less (almost no effect))
Southern crabgrass [8]
  F: southern crabgrass, herbicidal effect rating: 0 (Herbicidal rate of 5% or less (almost no effect))
Chickweed [9]
  herbicidal effect on P: chickweed (criteria 0-5): 5 (Herbicidal rate of 90% or more (almost completely withered))
Redroot pigweed [10]
  N: redroot pigweed, herbicidal effect rating: 3 (Herbicidal rate of 40% or more and less than 70%)
Velvetleaf [11]
  herbicidal effect on M: velvetleaf (criteria 0-5): 3 (Herbicidal rate of 40% or more and less than 70%)
Barnyard grass [12]
  herbicidal effect on H: barnyard grass (criteria 0-5): 0 (Herbicidal rate of 5% or less (almost no effect))
Redroot pigweed [13]
  herbicidal effect on N: redroot pigweed (criteria 0-5): 5 (Herbicidal rate of 90% or more (almost completely withered))
Blackgrass [14]
  herbicidal effect on J: blackgrass (criteria 0-5): 0 (Herbicidal rate of 5% or less (almost no effect))
Lambsquarters [15]
  herbicidal effect on O: lambsquarters (criteria 0-5): 4 (Herbicidal rate of 70% or more and less than 90%)
Blackgrass [16]
  J: blackgrass, herbicidal effect rating: 0 (Herbicidal rate of 5% or less (almost no effect))
Southern crabgrass [17]
  herbicidal effect on F: southern crabgrass (criteria 0-5): 0 (Herbicidal rate of 5% or less (almost no effect))
Persian speedwell [18]
  herbicidal effect on R: persian speedwell (criteria 0-5): 5 (Herbicidal rate of 90% or more (almost completely withered))
Barnyard grass [19]
  H: barnyard grass, herbicidal effect rating: 0 (Herbicidal rate of 5% or less (almost no effect))
Windgrass [20]
  herbicidal effect on L: windgrass (criteria 0-5): 0 (Herbicidal rate of 5% or less (almost no effect))
Lambsquarters [21]
  O: lambsquarters, herbicidal effect rating: 4 (Herbicidal rate of 70% or more and less than 90%)
Persian speedwell [22]
  R: persian speedwell, herbicidal effect rating: 4 (Herbicidal rate of 70% or more and less than 90%)
Wild oat [23]
  herbicidal effect on I: wild oat (criteria 0-5): 0 (Herbicidal rate of 5% or less (almost no effect))
Rice flat sedge
  herbicidal effect on E: rice flat sedge: 0 (Herbicidal rate of 5% or less (almost no effect))
Chickweed [24]
  P: chickweed, herbicidal effect rating: 4 (Herbicidal rate of 70% or more and less than 90%)
Windgrass [25]
  L: windgrass, herbicidal effect rating: 0 (Herbicidal rate of 5% or less (almost no effect))
